Key:
PTEN = PTEN 3′ UTR luciferase reporter assay in MDA-MB-231 cells; format: cell-based, human
Description: PTEN Luciferase Assay. The MDA-MB-231 cells were grown in 48-well plates to ˜60% confluency and then transiently co-transfected with a Firefly luciferase plasmid encoding the 3′ untranslated region (UTR) of PTEN^25 and a control Renilla luciferase plasmid using Lipofectamine 2000 per the manufacturer's protocol. At 5 h post-transfection, compounds diluted in growth medium were added to cells and then incubated for 48 h. Luciferase assays were completed using a previously described protocol^23,26. Luminescence signal was measured on a Biotek Flx800 plate reader.

pre-miR-21 WT RNA = test: In vitro Dicer processing of pre-miR-21 WT; format: biochemical
Source text: In vitro Dicer processing. […] Cleavage products were resolved on a denaturing 15% polyacrylamide gel, which was imaged using a Molecular Dynamics Typhoon phosphorimager and quantified with Bio-Rad's QuantityOne software, normalizing to full length RNA.

RNase L [1] = biological target: T1, RNase L (Homo sapiens, UniProt Q05823); test: Co-immunoprecipitation of RNase L from treated cells; format: cell-based; parameters: endogenous in cells; host or cells: MDA-MB-231
T1 sequence (Q05823 1-741): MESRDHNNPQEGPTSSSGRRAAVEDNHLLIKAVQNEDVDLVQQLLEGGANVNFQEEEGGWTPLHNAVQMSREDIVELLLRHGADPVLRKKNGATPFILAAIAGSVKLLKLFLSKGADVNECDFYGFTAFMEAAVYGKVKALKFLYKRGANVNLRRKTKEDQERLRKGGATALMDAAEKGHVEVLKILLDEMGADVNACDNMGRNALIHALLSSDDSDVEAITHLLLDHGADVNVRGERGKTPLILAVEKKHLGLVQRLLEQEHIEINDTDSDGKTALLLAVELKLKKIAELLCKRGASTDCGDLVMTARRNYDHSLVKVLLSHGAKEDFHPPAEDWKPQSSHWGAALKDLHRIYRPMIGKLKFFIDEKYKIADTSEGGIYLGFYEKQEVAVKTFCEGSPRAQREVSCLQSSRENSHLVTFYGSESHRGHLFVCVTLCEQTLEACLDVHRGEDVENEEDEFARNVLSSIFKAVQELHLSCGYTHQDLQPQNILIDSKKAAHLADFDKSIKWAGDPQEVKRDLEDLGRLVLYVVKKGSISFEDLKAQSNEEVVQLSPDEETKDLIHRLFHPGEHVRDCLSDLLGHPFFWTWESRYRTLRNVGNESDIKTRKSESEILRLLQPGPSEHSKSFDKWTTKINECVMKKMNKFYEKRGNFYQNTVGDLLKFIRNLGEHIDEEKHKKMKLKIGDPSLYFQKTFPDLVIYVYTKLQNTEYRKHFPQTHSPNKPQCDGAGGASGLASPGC

pre-miR-21 = test: In vitro RNase L cleavage of pre-miR-21 (FRET sensor, gel mapping); format: biochemical
Description: In Vitro Fluorescent RNA Cleavage. A model RNA hairpin^15 labeled with a 5′ 6-Fluorescein (6FAM) and 3′ Black Hole Quencher (IQ4) (5′ 6FAM-[…]-3′ IQ4; 5′ FAM/3′ BHQ model RNA) (SEQ ID NO: 3) or a miR-21 Hairpin Precursor RNA labeled with a 5′ 6-Fluorescein (6FAM) and 3′ Black Hole Quencher (IQ4) (5′ 6FAM-[…] […]-3′ IQ4; 5′ FAM/3′ BHQ miR-21 Hairpin Precursor RNA) (SEQ ID NO: 4) was purchased from Chemgenes with HPLC purification. Solutions of RNA (100 nM) were folded at 65° C. for 5 min and slowly cooled to room temperature in 1×RNase L Buffer (25 mM Tris-HCl, pH 7.4, 100 mM KCl) without MgCl2, β-mercaptoethanol or ATP. After folding, the RNA was supplemented with 10 mM MgCl2, fresh 7 mM β-mercaptoethanol, and 50 μM of ATP. Next, 100 nM of RNase L, prepared as described previously^22, and various concentrations of screening compounds were prepared in 1×RNase L Buffer and added to the RNA. […] The samples were incubated at room temperature for 60 min after which the fluorescence intensity (Ex: 485 nm, Em: 525 nm) was measured using a SpectraMax M5 plate reader or Biotek FLx800 plate reader. The percentage change in fluorescence intensity, where enhancement of fluorescence intensity was indicative of RNA cleavage, was determined by calculating the percentage change in sample fluorescent signals relative to the untreated fluorescent signal (Fi, %). […]

RNase L [2] = biological target: T1, RNase L; test: In vitro RNase L oligomerization; format: biochemical; parameters: GST; made in house
Description: In Vitro RNase L Oligomerization. An aliquot of RNase L (3 μM) in 1×RNase L Buffer was supplemented with 10 mM MgCl2, fresh 7 mM β-mercaptoethanol, and 50 μM of ATP. RNase L oligomerization was performed as previously described^13 using dilutions of 2′-5′ A4 or compounds (2 or 5) prepared in 1×RNase L Buffer. A Western blot (described below) was run to resolve monomeric and oligomeric RNase L populations using RNase L primary antibody (1:5000 dilution; Cell Signaling Technology: D4B4J) overnight at 4° C. in 1×TBST containing 5% nonfat dry milk and 1:10000 anti-rabbit IgG horseradish peroxidase secondary antibody conjugate (Cell Signaling Technology: 7074S) in 1×TBST containing 5% nonfat dry milk for 2 h at room temperature.

Structure (SMILES) | increase of PTEN luciferase signal relative to mock or scramble controls (PTEN) [fold] | increase of PTEN levels (PTEN; 10 μM) [%] | inhibition of / protection from Dicer processing (pre-miR-21 WT RNA) | pre-miR-21 in the enriched fraction of RNase L co-immunoprecipitation (RNase L [1]) | enrichment of pre-miR-210 in RNase L co-immunoprecipitation (RNase L [1]; 200 nM) | increase in pre-miR-21 in RNase L co-immunoprecipitation (RNase L [1]; 200 nM) [fold] | cleavage sites in labeled pre-miR-21 WT RNA (gel mapping) (pre-miR-21; 5 and RNase L treatment) | fluorescence cleavage of pre-miR-21 labeled FRET sensor (pre-miR-21; with RNase L) | oligomerization of RNase L (RNase L [2])
CCCN(CC(=O)N(CCC)CC(=O)N(CCC)CC(=O)N(CC(N)=O)Cc1cn(CCCNC(=O)CCCOc2ccc(-c3nc4cc(-c5ccc(N6CCN(C)CC6)cc5)ccc4[nH]3)cc2)nn1)C(=O)CNCc1cn(CCCNC(=O)CCCOc2ccc(-c3nc4cc(-c5ccc(N6CCN(C)CC6)cc5)ccc4[nH]3)cc2)nn1 [Compound 2] | ~1.5 | ~50 | Protection with compound is observed at U23 (boxes marked with arrows) and U26 and U27 |  |  |  |  |  | 
CCCN(CC(=O)N(CCC)CC(=O)N(CCC)CC(=O)N(CC(=O)NCCOCCOCCOCCOc1ccc(C=C2SC(Nc3ccccc3)=C(C(=O)OCC)C2=O)cc1O)Cc1cn(CCCNC(=O)CCCOc2ccc(-c3nc4cc(-c5ccc(N6CCN(C)CC6)cc5)ccc4[nH]3)cc2)nn1)C(=O)CN(Cc1cn(CCCNC(=O)CCCOc2ccc(-c3nc4cc(-c5ccc(N6CCN(C)CC6)cc5)ccc4[nH]3)cc2)nn1)C(C)=O [Compound 5] |  |  |  | increased levels of pre-miR-21 in the enriched fraction | no enrichment of pre-miR-210 | ~3 | Cleavage was observed at U27, G25, C23, and G21 | dose responsive increase in cleavage | oligomerization of RNase L
